According to US20230065562A1, “DUAL CONTROLS FOR THERAPEUTIC CELL ACTIVATION OR ELIMINATION” (Bellicum Pharmaceuticals, Inc., priority 2015, published 2023):

Experiments:
iCasp9-transduced MSCs = test: Apoptosis studies in vitro in iCasp9-ΔCD19 transduced MSCs; format: cell-based, human
Method: Undifferentiated MSCs. The chemical inducer of dimerization (CID) (AP20187; ARIAD Pharmaceuticals, Cambridge, Mass.) was added at 50 nM to iCasp9-transduced MSCs cultures in complete medium. Apoptosis was evaluated 24 hours later by FACS analysis, after cell harvest and staining with annexin V-PE and 7-AAD in annexin V binding buffer (BD Biosciences, San Diego, Calif.). Control iCasp9-transduced MSCs were maintained in culture without exposure to CID.
Differentiated MSCs. Transduced MSCs were differentiated as presented above. At the end of the differentiation period, CID was added to the differentiation media at 50 nM. Cells were stained appropriately for the tissue being studied, as presented above, and a contrast stain (methylene azure or methylene blue) was used to evaluate the nuclear and cytoplasmic morphology. In parallel, tissues were processed for terminal deoxynucleotidyl-transferase dUTP nick end labeling (TUNEL) assay as per manufacturer instructions (In Situ Cell Death Detection Kit, Roche Diagnostics, Mannheim, Germany). For each time point, four random fields were photographed at a final magnification of 40× and the images were analyzed with ImageJ software version 1.430 (NIH, Bethesda, Md.). Cell density was calculated as the number of nuclei (DAPI positivity) per unit of surface area (in mm^2). The percentage of apoptotic cells was determined as the ratio of the number of nuclei with positive TUNEL signal (FITC positivity) to the total number of nuclei. Controls were maintained in culture without CID.

[1] = test system: T cells expressing ΔC9 alone (pBP1501); test: T cell killing assay with caspase 3/7 green reagent monitored by IncuCyte, negative control ΔC9; format: cell-based, human; settings: increasing doses, FIG. 108B
Source text: To determine the functionality of these switches in activated T cells, retroviral supernatants were produced and transduced into PBMCs activated from 3 separate donors.

Raji-GFP cells = test: Raji-GFP coculture with CD19 CAR-T cells (flow cytometry); format: cell-based, human; settings: 2 nM, E:T 1:5, seven days
Method: After seven days of incubation the live cells were analyzed for the proportion of GFP labeled tumor cells (left) and for the proportion of total T cells (CD3^+, right) and transduced CAR-T cells (CD34, not shown).
Raji cells (ATCC) labeled by stable expression of Green Fluorescent Protein (Raji-GFP) are a Burkitt's lymphoma cell line that express CD19 on the cell surface and are a target for an anti-CD19 CAR. 50000 Raji-GFP cells were seeded on a 24 well plate with 10000 CAR-T cells, a 1:5 E:T ratio. Media supernatant was taken at 48 hours for determination of cytokine release by activated CAR-T cells. The degree of tumor killing was determined at 7 days and 14 days by flow cytometry (Galeos, Beckman-Coulter) by the proportion of GFP labeled tumor cells and CD3 labeled T cells.

[2] = test system: HLA-B7+Bob-1+ U266 multiple myeloma; test: iMC-Bob-1 TCR cytotoxicity and IL-2 secretion against U266; format: cell-based
Source text: FIG. 120: (A) iMC-Bob-1 TCR-mediated cytotoxicity against HLA-B7^+Bob-1^+ U266 multiple myeloma is rimiducid-independent. […] Go156 TCR is a negative control TCR.

[3] = test system: iRmC9 T cells (pBP1327, GFP-Fluc); test: In vivo apoptotic activation in NSG mice, iRmC9 T cells (IVIS imaging, spleen FACS); parameters: species or system mouse; settings: 5 mg/kg rimiducid or 10 mg/kg rapamycin i.p.
Method: PBMCs from donor 676 were activated and co-transduced with one of the off-switches and GFP-Fluc retroviruses. Eleven days after transduction, cells were analyzed for transduction efficiency with GFP and anti-CD3/anti-CD19 antibodies (FIG. 109A). […] The CD19^+ MFI for the different T cell populations were: iC9=15.07, iRC9=14.38, and iRmC9=13.39. The cells were collected, counted, washed, and resuspended at 1×10^6 cells in 100 μl PBS for each tail vein mouse injection (Table 10) (time=−18 hr). […] IVIS imaging was performed at −14, 0, 5, 24 and 29 hours. Mice were sacrificed and spleens were collected for FACS analysis with hCD3, hCD19 and mCD45 antibodies. […] The higher percentage of remaining iRmC9 T cells observed may be due to an artifact of normalizing the no drug group.
PBMCs from donor 676 were activated and co-transduced with retroviruses encoding the pBP0220, 1310, 1327 vectors and the GFP-Fluc plasmid. (FIG. 109A) Eleven days post transduction, the cells were analyzed for CD19 and GFP transduction efficiency prior to injection into mice. (FIGS. 109B & C) NSG mice were injected i.v. with 107 T cells co-transduced with GFP-Fluc per mouse and suicide drugs were injected i.p. the next day. Bioluminescence of cells was assessed at −14, 0, 5, 24, and 29 hours post-drug administration. (FIG. 109D) At 29-h post-drug treatment, mice were euthanized and spleens were collected for flow cytometry analysis with antibodies to hCD3, […], and mCD45

[4] = test system: luciferase-expressing U266 myeloma cells; test: NSG mice engrafted with U266 myeloma cells, iMC-PRAME TCR T cells with rimiducid; format: in vivo, mouse
Method: FIG. 121: (A) NSG mice were engrafted with 1×10^6 luciferase-expressing U266 myeloma cells and treated with […] non-transduced, PRAME TCR- or iMC-PRAME TCR-transduced T cells on day 13. […] (B) Tumor growth was measured by bioluminescence imaging.

iC9 (pBP220) = iC9 (pBP220) (Homo sapiens, UniProt P62942, F37V); test: SRα-SEAP assay of drug specificity, iC9 switch, 293 cells; settings: SRα-SEAP reporter, FIG. 108A
Sequence of iC9 (pBP220) (P62942 2-108 F37V): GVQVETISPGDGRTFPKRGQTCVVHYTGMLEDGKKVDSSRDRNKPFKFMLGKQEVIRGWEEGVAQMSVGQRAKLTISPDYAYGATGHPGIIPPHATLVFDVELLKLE
Sequence of iC9 (pBP220) (P55211 135-416 partner limits assumed): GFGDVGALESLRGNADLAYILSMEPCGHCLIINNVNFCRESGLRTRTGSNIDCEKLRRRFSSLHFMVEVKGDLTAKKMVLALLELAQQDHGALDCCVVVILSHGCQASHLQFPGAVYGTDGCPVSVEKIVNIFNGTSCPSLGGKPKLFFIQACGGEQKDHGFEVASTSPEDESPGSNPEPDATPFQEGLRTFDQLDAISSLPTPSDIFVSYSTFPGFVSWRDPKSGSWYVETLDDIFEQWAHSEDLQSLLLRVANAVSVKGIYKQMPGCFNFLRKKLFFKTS

Row | Compound | apoptosis index of iCasp9-negative cells (iCasp9-transduced MSCs; CID 50 nM) [%] | apoptotic death of iCasp9-positive cells within 24 hrs (iCasp9-transduced MSCs; CID 50 nM) [%] | annexin positive, negative population (iCasp neg/CID) (iCasp9-transduced MSCs; CID 50 nM, 24 hours, FACS) [%] | annexin positive, non-transduced control MSC (Control/CID) (iCasp9-transduced MSCs; CID 50 nM, 24 hours, FACS) [%] | cell density after 24 hours (iCasp9-transduced MSCs; adipocytic differentiated iCasp9-positive cells, 50 nM CID, from 584) [cells/mm^2] | apoptotic cells among magnetically immunoselected iCasp9-CD19-positive cells (iCasp9-transduced MSCs; after exposure to CID) | activity of negative control ΔC9 alone (pBP1501) in T cells [1] | CAR-T cells with i9+CARζ+MC or FRBFwtMC/FvC9 (Raji-GFP cells) | iMC-Bob-1 TCR-mediated cytotoxicity against U266 ([2]; FIG. 120A) | IL-2 secretion, Bob-1 TCR with rimiducid-driven iMC costimulation, U266 ([2]; FIG. 120B) | iRmC9 T cells remained in splenocytes (normalized to no drug group) ([3]; spleen FACS, FIG. 109D) [%] | removal of iRmC9 T cells (IVIS imaging) ([3]; NSG mice, FIGS. 109B & C) | number of Vβ1+CD8+ T cells in spleen ([4]; 5 mg/kg rimiducid i.p. weekly day 14 to 38, spleens day 94, FIG. 121C) | anti-tumor efficacy of TCR-modified T cells with rimiducid-driven iMC activation ([4]; summary, in vitro and in vivo) | activation of the iC9 switch (iC9 (pBP220))
1 | CC[C@H](C(=O)N1CCCC[C@H]1C(=O)O[C@H](CCc1ccc(OC)c(OC)c1)c1cccc(OCC(=O)NCC(CNC(=O)COc2cccc([C@@H](CCc3ccc(OC)c(OC)c3)OC(=O)[C@@H]3CCCCN3C(=O)[C@@H](CC)c3cc(OC)c(OC)c(OC)c3)c2)CN(C)C)c1)c1cc(OC)c(OC)c(OC)c1 [AP20187] | 20±7 | 93±1 | 19 | 15 | < 14 | More than 95% |  |  |  |  |  |  |  |  | 
2 | CC[C@H](C(=O)N1CCCC[C@H]1C(=O)O[C@H](CCc1ccc(OC)c(OC)c1)c1cccc(OCC(=O)NCCNC(=O)COc2cccc([C@@H](CCc3ccc(OC)c(OC)c3)OC(=O)[C@@H]3CCCCN3C(=O)[C@@H](CC)c3cc(OC)c(OC)c(OC)c3)c2)c1)c1cc(OC)c(OC)c(OC)c1 [rimiducid] |  |  |  |  |  |  | not active | caused cell death | rimiducid-independent | maximal IL-2 secretion | ~50 | induced significant removal | significantly increased | improved anti-tumor efficacy | can activate
